# PubChem BioAssay (NCI)
#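 48-hour exposure; five concentrations; linearly interpolated endpoints. GI50 marks 50% less growth. TGI: total growth inhibition.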
# How the values were obtained:
# Assay in all cases: DTP human tumour cell line panel, 48 h
# HCT-116 colon = test system: HCT-116 colon
# HS 578T breast = test system: HS 578T breast
# EKVX NSCLC = test system: EKVX NSCLC
# SK-MEL-5 melanoma = test system: SK-MEL-5 melanoma
# RPMI-8226 leukemia = test system: RPMI-8226 leukemia
# NCI-H522 lung = test system: NCI-H522 lung
# NCI/ADR-RES ovarian = test system: NCI/ADR-RES ovarian
# SK-OV-3 ovarian = test system: SK-OV-3 ovarian
# HCT-15 colon = test system: HCT-15 colon
# SF-295 CNS = test system: SF-295 CNS
# RXF 393 renal = test system: RXF 393 renal
# CAKI-1 renal = test system: CAKI-1 renal
# HL-60(TB) leukemia = test system: HL-60(TB) leukemia
# M14 melanoma = test system: M14 melanoma
# KM12 colon = test system: KM12 colon
# T-47D breast = test system: T-47D breast
# MCF7 breast = test system: MCF7 breast
# HCC-2998 colon = test system: HCC-2998 colon
# SW-620 colon = test system: SW-620 colon
# LOX IMVI melanoma = test system: LOX IMVI melanoma
# DU-145 prostate = test system: DU-145 prostate
# SF-268 CNS = test system: SF-268 CNS
# NCI-H23 lung = test system: NCI-H23 lung
# BT-549 breast = test system: BT-549 breast
# MALME-3M melanoma = test system: MALME-3M melanoma
# HT29 colon = test system: HT29 colon
# SR leukemia = test system: SR leukemia
# SK-MEL-2 melanoma = test system: SK-MEL-2 melanoma
# OVCAR-5 ovarian = test system: OVCAR-5 ovarian
# TK-10 renal = test system: TK-10 renal
# SF-539 CNS = test system: SF-539 CNS
# HOP-92 NSCLC = test system: HOP-92 NSCLC
# UO-31 renal = test system: UO-31 renal
# U251 CNS = test system: U251 CNS
# 786-0 renal = test system: 786-0 renal
# IGROV1 ovarian = test system: IGROV1 ovarian
# A498 renal = test system: A498 renal
# OVCAR-4 ovarian = test system: OVCAR-4 ovarian
# NCI-H226 lung = test system: NCI-H226 lung
# OVCAR-3 ovarian = test system: OVCAR-3 ovarian
# MOLT-4 leukemia = test system: MOLT-4 leukemia
# SNB-75 CNS = test system: SNB-75 CNS
# UACC-62 melanoma = test system: UACC-62 melanoma
# HOP-62 NSCLC = test system: HOP-62 NSCLC
# OVCAR-8 ovarian = test system: OVCAR-8 ovarian
# A549 NSCLC = test system: A549 NSCLC
# COLO 205 colon = test system: COLO 205 colon
# MDA-MB-231 breast = test system: MDA-MB-231 breast
# SNB-19 CNS = test system: SNB-19 CNS
# ACHN renal = test system: ACHN renal
# K-562 leukemia = test system: K-562 leukemia
# PC-3 prostate = test system: PC-3 prostate
# SN12C renal = test system: SN12C renal
# SK-MEL-28 melanoma = test system: SK-MEL-28 melanoma
# NCI-H460 lung = test system: NCI-H460 lung
structure (smiles),measurement,setting,value
CCN(CC)c1ccc(/C=C/C=C2\NC(=O)NC2=O)cc1,GI50,HCT-116 colon,1.6 µM
same,TGI,HCT-116 colon,30.6 µM
same,GI50,HS 578T breast,3.91 µM
same,TGI,HS 578T breast,42.6 µM
same,GI50,EKVX NSCLC,3.77 µM
same,TGI,EKVX NSCLC,> 100 µM
same,GI50,SK-MEL-5 melanoma,1.17 µM
same,TGI,SK-MEL-5 melanoma,13.7 µM
same,GI50,RPMI-8226 leukemia,2.68 µM
same,TGI,RPMI-8226 leukemia,32.4 µM
same,GI50,NCI-H522 lung,0.92 µM
same,TGI,NCI-H522 lung,4.11 µM
same,GI50,NCI/ADR-RES ovarian,1.12 µM
same,TGI,NCI/ADR-RES ovarian,28.5 µM
same,GI50,SK-OV-3 ovarian,7.6 µM
same,TGI,SK-OV-3 ovarian,> 100 µM
same,GI50,HCT-15 colon,2.31 µM
same,TGI,HCT-15 colon,> 100 µM
same,GI50,SF-295 CNS,1.54 µM
same,TGI,SF-295 CNS,> 100 µM
same,GI50,RXF 393 renal,1.03 µM
same,TGI,RXF 393 renal,5.93 µM
same,GI50,CAKI-1 renal,2.65 µM
same,TGI,CAKI-1 renal,> 100 µM
same,GI50,HL-60(TB) leukemia,3.06 µM
same,TGI,HL-60(TB) leukemia,> 100 µM
same,GI50,M14 melanoma,1.56 µM
same,TGI,M14 melanoma,> 100 µM
same,GI50,KM12 colon,1.85 µM
same,TGI,KM12 colon,21.3 µM
same,GI50,T-47D breast,4 µM
same,TGI,T-47D breast,> 100 µM
same,GI50,MCF7 breast,3.77 µM
same,TGI,MCF7 breast,> 100 µM
same,GI50,HCC-2998 colon,2.44 µM
same,TGI,HCC-2998 colon,29.1 µM
same,GI50,SW-620 colon,3.77 µM
same,TGI,SW-620 colon,> 100 µM
same,GI50,LOX IMVI melanoma,7.15 µM
same,TGI,LOX IMVI melanoma,> 100 µM
same,GI50,DU-145 prostate,3.36 µM
same,TGI,DU-145 prostate,25.4 µM
same,GI50,SF-268 CNS,8.51 µM
same,TGI,SF-268 CNS,> 100 µM
same,GI50,NCI-H23 lung,11.2 µM
same,TGI,NCI-H23 lung,> 100 µM
same,GI50,BT-549 breast,1.53 µM
same,TGI,BT-549 breast,40.8 µM
same,GI50,MALME-3M melanoma,28.7 µM
same,TGI,MALME-3M melanoma,> 100 µM
same,GI50,HT29 colon,1.82 µM
same,TGI,HT29 colon,9.25 µM
same,GI50,SR leukemia,0.446 µM
same,TGI,SR leukemia,> 100 µM
same,GI50,SK-MEL-2 melanoma,3.5 µM
same,TGI,SK-MEL-2 melanoma,53.6 µM
same,GI50,OVCAR-5 ovarian,11.1 µM
same,TGI,OVCAR-5 ovarian,98.4 µM
same,GI50,TK-10 renal,6.54 µM
same,TGI,TK-10 renal,64.2 µM
same,GI50,SF-539 CNS,2.33 µM
same,TGI,SF-539 CNS,8.6 µM
same,GI50,HOP-92 NSCLC,1.74 µM
same,TGI,HOP-92 NSCLC,24.2 µM
same,GI50,UO-31 renal,7.97 µM
same,TGI,UO-31 renal,> 100 µM
same,GI50,U251 CNS,3.22 µM
same,TGI,U251 CNS,17.9 µM
same,GI50,786-0 renal,2.93 µM
same,TGI,786-0 renal,34.2 µM
same,GI50,IGROV1 ovarian,3.57 µM
same,TGI,IGROV1 ovarian,> 100 µM
same,GI50,A498 renal,1.26 µM
same,TGI,A498 renal,6.55 µM
same,GI50,OVCAR-4 ovarian,9.01 µM
same,TGI,OVCAR-4 ovarian,> 100 µM
same,GI50,NCI-H226 lung,15 µM
same,TGI,NCI-H226 lung,> 100 µM
same,GI50,OVCAR-3 ovarian,1.95 µM
same,TGI,OVCAR-3 ovarian,5.29 µM
same,GI50,MOLT-4 leukemia,6.49 µM
same,TGI,MOLT-4 leukemia,> 100 µM
same,GI50,SNB-75 CNS,2.67 µM
same,TGI,SNB-75 CNS,79.5 µM
same,GI50,UACC-62 melanoma,3.95 µM
same,TGI,UACC-62 melanoma,> 100 µM
same,GI50,HOP-62 NSCLC,3.64 µM
same,TGI,HOP-62 NSCLC,> 100 µM
same,GI50,OVCAR-8 ovarian,6.21 µM
same,TGI,OVCAR-8 ovarian,66.6 µM
same,GI50,A549 NSCLC,3.69 µM
same,TGI,A549 NSCLC,32.7 µM
same,GI50,COLO 205 colon,3.22 µM
same,TGI,COLO 205 colon,16.2 µM
same,GI50,MDA-MB-231 breast,10.5 µM
same,TGI,MDA-MB-231 breast,> 100 µM
same,GI50,SNB-19 CNS,16.1 µM
same,TGI,SNB-19 CNS,> 100 µM
same,GI50,ACHN renal,7.24 µM
same,TGI,ACHN renal,> 100 µM
same,GI50,K-562 leukemia,3.7 µM
same,TGI,K-562 leukemia,> 100 µM
same,GI50,PC-3 prostate,3.75 µM
same,TGI,PC-3 prostate,> 100 µM
same,GI50,SN12C renal,9.41 µM
same,TGI,SN12C renal,> 100 µM
same,GI50,SK-MEL-28 melanoma,27.1 µM
same,TGI,SK-MEL-28 melanoma,> 100 µM
same,GI50,NCI-H460 lung,3.03 µM
same,TGI,NCI-H460 lung,16.1 µM
